Read-outs that look alike come from different tables or passages of the source. Peptide text beside a SMILES is read from it.
Key:
physchem = format: physicochemical
[1] = reported in WO 94/11391, compared to 2%, 5% and 10% sucrose solutions, cited from earlier work
[2] = Sensory evaluation of sweetness (sweetening potency) relative to sucrose; conditions: for Sweetness (sweetening potency): sensory evaluation; for sweetness potency: values compared to sweetening potency of a 4% aqueous solution of sucrose
Excerpt: For example, the sweetness of N-[N-[3-(3-hydroxy-4-methoxyphenyl)-3-methylbutyl]-L-α-aspartyl]-L-phenylalanine 1-methyl ester was approximately 70000 times that of sugar, the sweetness of N-[N-[3-(3-methyl-4 hydroxyphenyl)-3-methylbutyl]-L-α-aspartyl]-L-phenylalanine 1-methyl ester was approximately 70000 times that of sugar, the sweetness of N-[N-[3-(3-hydroxy-4-methylphenyl)-3-methylbutyl]-L-α- aspartyl]-L-phenylalanine 1-methyl ester was approximately 60000 times that of sugar, and the sweetness of N-[N-((RS)-3-(3 hydroxy-4-methoxyphenyl) butyl]-L-α-aspartyl]-L-phenylalanine 1-methyl ester was approximately 50000 times that of sugar. […] Sensory evaluations can be performed as described in, for example, B. T. Carr, S. D. Pecore, K. M. Gibes and G. E. Dubois, “Sensory Methods for Sweetner Evaluation” in Flavor Measurement, edited by C. T. Ho and C. H. Manley, Marcel Decker, Inc. (1992).

Row | SMILES | sweetening potency [1] | sweetness potency [2] | half life in a buffer (physchem) [h] | other results
1 | COC(=O)[C@H](Cc1ccccc1)NC(=O)[C@@H](N)CC(=O)O [aspartame, reference compound] (H-Asp-Phe-OMe) | – | – | – | half-life (physchem; buffer, pH 3): 23.5 h
2 | COC(=O)[C@H](Cc1ccccc1)NC(=O)[C@H](CC(=O)O)NCCCc1ccccc1 [N-[N-(3-phenylpropyl)-L-(α-aspartyl]-L-phenylalanine 1-methyl ester] | 1500 times that of sucrose | – | – | –
3 | COC(=O)[C@H](Cc1ccccc1)NC(=O)[C@H](CC(=O)O)NCCC(C)(C)C [N-[N-(3,3-dimethylbutyl)-L-α-aspartyl]-L-phenylalanine 1-methyl ester, reference compound] | 10,000 times that of sucrose | – | – | sweetening potency ([1]; listed as N-[N-(3,3-dimethylbutyl)-L-α-aspartyl]-L-phenylalanine 1-methylester): 10000 times that of sucrose
4 | COC(=O)[C@H](Cc1ccccc1)NC(=O)[C@H](CC(=O)O)NCCCc1ccc(O)c(OC)c1 [N-[N-(3-(3-methoxy-4-hydroxyphenylpropyl)-L-α-aspartyl]-L-phenylalanine 1-methyl ester] | 2500 times that of sucrose | – | – | –
5 | COC(=O)[C@H](Cc1ccccc1)NC(=O)[C@H](CC(=O)O)NCCC(C)(C)c1ccc(OC)c(O)c1 [Compound 10, N-[N-[3-(3-hydroxy-4-methoxyphenyl)-3-methylbutyl]-L-α-aspartyl]-L-phenylalanine 1-methyl ester] | – | 70000 | 44.5 | Sweetness (sweetening potency) ([2]; listed as Example 1): 70000 times the sweetness of sugar
6 | COC(=O)[C@H](Cc1ccccc1)NC(=O)[C@H](CC(=O)O)NC(C)CCc1ccc(O)c(OC)c1 (mixture of isomers) [N-[N-[3-(3-methoxy-4-hydroxyphenyl)(RS)-1-methylpropyl]-L-α-aspartyl]-L-phenylalanine 1-methylester] | 500 times that of sucrose | – | – | –
7 | COC(=O)[C@H](Cc1ccccc1)NC(=O)[C@H](CC(=O)O)NCCC(C)(C)c1ccc(O)c(OC)c1 [Compound 9, N-[N-[3-(3-methoxy-4-hydroxyphenyl)-3-methylbutyl]-L-α-aspartyl)-L-phenylalanine 1 methyl ester] | – | 40000 | 34.4 | Sweetness (sweetening potency) [2]: 40000 times the sweetness of sugar
8 | COC(=O)[C@H](Cc1ccc(O)cc1)NC(=O)[C@H](CC(=O)O)NCCC(C)(C)C [N-[N-(3,3-dimethylbutyl)-L-α-aspartyl]-L-tyrosine 1-methyl ester] | 4,000 times that of sucrose | – | – | sweetening potency ([1]; listed as N-[N-(3,3-dimethylbutyl)-L-α-aspartyl]-L-tyrosine 1-methylester): 4000 times that of sucrose
9 | COC(=O)[C@H](Cc1ccccc1)NC(=O)[C@H](CC(=O)O)NCCC(C)(C)c1ccc(O)cc1 [Compound 8, N-[N-[3-(4-hydroxyphenyl)-3-methylbutyl]-L-α-aspartyl]-L-phenylalanine 1 methyl ester] | – | 25000 | 43.6 | Sweetness (sweetening potency) [2]: 25000 times the sweetness of sugar

Source: patent publication US7238830B2, “N-alkylaspartyl dipeptide ester compounds” (Ajinomoto Co., Inc., priority 1998, dated 2007)
